Measurements published in patent publication US20160015669A1, “COMPOUND, 1, 3-DIOLEIN-2-LINOLEIN, AND PHARMACEUTICAL PREPARATION AND USE THEREOF” (ZHEJIANG KANGLAITE GROUP CO., LTD., priority 2014, published 2016).
Converted amounts (≈) assume the structure as drawn.

Experiments:
Assay type in all cases: cell-based
[1] = system: BGC-823 (human gastric cancer cells); experiment: MTT method, inhibition of cell growth in vitro; settings: 48 h; for IC50: BGC-823, MTT
From the text: (§1) A. Experimental Materials and the Preparation Thereof: • (1) Cell lines: PANC-1 (human pancreatic cancer cells), SKOV3 (human ovarian cancer cells), MCF-7 (human breast cancer cells), SMMC-7721 (human liver cancer cells), A549 (human lung cancer cells), BGC-823 (human gastric cancer cells), COLO205 (human colonic cancer cells), storaged and passaged maintainably in Research and Evaluation Center for Pharmacology, Shanghai Institute of Pharmaceutical Industry; • (2) DMEM complete medium supplied with 10% newborn calf serum (GIBCO BRL), 1% of penicillin (100 U/mL)+streptomycin (100 μg/mL); • (3) 0.25% trypsin solution, purchased from Invitrogen Corp. and storaged at −20; • (4) Phosphate buffer (PBS): NaCl 8 g, KCl 0.2 g, Na2HPO4 1.15 g and KH2PO4 0.2 g, dissolved in 1 L double-distilled water and autoclaved at 121 for 20 min, then storaged at 4; • (5) MTT (AMRESCO) solution: 5 mg/ml in PBS; • (6) Formazan crystal dissolving solution: SDS 10 g, isobutanol 5 ml and concentrated hydrochloric acid 0.1 ml, dissolved in 100 ml of deionized double distilled water.
(§2) The inhibition effects of the compound of formula (I) on the above-mentioned cell lines were detected by using MTT method. The specific procedures were as follows:
(§3) (1) Cell culture: (a) Storaged cells were taken out from the liquid nitrogen, thawed quickly in a 37 water bath, then aseptically transferred into 6 ml of cellular medium in a 10 ml centrifugal tube, centrifuged at 1000 rpm for 5 min. The supernatant was discarded, then the precipitated cells were re-suspended in 5-6 ml cellular media by pipetting and transferred into a flask in a 37 incubator for cell culture; (b) Next day, the flask was taken out from the incubator and the used medium was discarded, then the cells were incubated in 5-6 ml fresh medium in the 37 incubator; (c) On the third day, the flask was taken out from the incubator and the used medium was discarded, then 2-3 ml of PBS (pH7.4) was added into the flask with rocking for cleaning it and the used PBS was discarded. Such a cellular cleaning step was repeated once again. 3-5 drops of 0.25% trypsin solution were added into the flask with sloshing, thus well-distributed in it. The flask was capped and placed in a 37 incubator for about 3 min, and the separation of cells from the flask wall was observed under the microscope. 2 ml of cellular medium was added and cells were separated completely from the flask wall by pipetting, then the cell suspension was transferred into 2 separate clean flasks, each containing 5-6 ml medium. The cell suspension was well-distributed by pipetting, then the flask was placed in a 37 incubator. (d) Step(c) was repeated every other day. In the whole cultivation process, adherent cells were not allowed to grow too dense and suspension cells were always maintained at a logarithmic growth stage.
(§4) (2) Preparation of the sample and the control: A proper amount of sample of the compound of formula (I) was dissolved in DMSO to obtain a solution in a concentration of 10 mg/ml. This solution was diluted in a gradient dilution with PBS to obtain a set of sample solutions in the concentration of 10 mg/ml, 5000 μg/ml, 2500 μg/ml, 1250 μg/ml, 625 μg/ml and 312.5 μg/ml, respectively.
(§5) (3) Each diluted sample solution was added into duplicated wells of a 96 well flat-bottom microplate (10 μl/well). The correspondingly diluted DMSO solutions, as controls, were added into the wells of the microplate.
(§6) (4) Cells in a logarithmic growth stage were trypsinized and washed, then re-suspended in the medium containing 10% calf serum. The number of living cells was counted in Trypan blue dye exclusion method and cell suspensions were adjusted into a density of 2×10^5 cell/ml.
(§7) (5) The cell-contained 96 well flat-bottom microplate was placed in a 37 incubator and cells were incubated under 5% CO2 for 48 h.
(§8) (6) 20 it of 5 mg/ml MTT solution was added into each well and cells were incubated continuously in the incubator for 3-4 h. […]

[2] = system: PANC-1 (human pancreatic cancer cells); experiment: MTT method, inhibition of cell growth in vitro; settings: 48 h; for IC50: PANC-1, MTT
From the text: as §1, §2, §3, §4, §5, §6, §7, §8

[3] = system: COLO205 (human colonic cancer cells); experiment: MTT method, inhibition of cell growth in vitro; settings: 48 h; for IC50: COLO 205, COLO205, MTT
From the text: as §1, §2, §3, §4, §5, §6, §7, §8

[4] = system: SMMC-7721 (human liver cancer cells); experiment: MTT method, inhibition of cell growth in vitro; settings: 48 h; for IC50: SMMC-7721, MTT
From the text: as §1, §2, §3, §4, §5, §6, §7, §8

7 human tumor cell lines = experiment: MTT method, overall conclusion on 7 human tumor cell lines; settings: various concentrations
From the text: as §1
The inhibition effects of the compound of formula (I) on the above-mentioned cell lines were detected by using MTT method. The specific procedures were as follows: […]

[5] = system: A549 (human lung cancer cells); experiment: MTT method, inhibition of cell growth in vitro; settings: 48 h
From the text: as §1, §2, §3, §4, §5, §6, §7, §8

[6] = system: MCF-7 (human breast cancer cells); experiment: MTT method, inhibition of cell growth in vitro; settings: 48 h
From the text: as §1, §2, §3, §4, §5, §6, §7, §8

[7] = system: SKOV3 (human ovarian cancer cells); experiment: MTT method, inhibition of cell growth in vitro; settings: 48 h
From the text: as §1, §2, §3, §4, §5, §6, §7, §8

`CC(=O)O[C@H]1C(=O)[C@@]2(C)[C@H]([C@H](OC(=O)c3ccccc3)[C@]3(O)C[C@H](OC(=O)[C@H](O)[C@@H](NC(=O)c4ccccc4)c4ccccc4)C(C)=C1C3(C)C)[C@]1(OC(C)=O)CO[C@@H]1C[C@@H]2O` [Taxol, reference compound] gave an IC50 [1] of 0.24 µg/mL (≈ 0.281 µM), an IC50 [2] of 0.44 µg/mL (≈ 0.515 µM) and an IC50 [3] of 0.75 µg/mL (≈ 0.878 µM). It also gave an IC50 [4] of 0.12 µg/mL (≈ 0.141 µM).

For `CCCCCC=CCC=CCCCCCCCC(=O)OC(COC(=O)CCCCCCCC=CCCCCCCCC)COC(=O)CCCCCCCC=CCCCCCCCC` (centres unmarked) [compound of formula (I), 1,3-diolein-2-linolein], the “Inhibition on 7 human tumor cell lines (in words)” value (7 human tumor cell lines) was “obvious inhibition on 7 human tumor cell lines”, the inhibition at 31.25 µg/mL ([1]; BGC-823, 31.25 μg/ml, read-out: Inhibition rate on the cell growth) was 8.31% and the inhibition at 62.5 µg/mL ([1]; BGC-823, 62.5 μg/ml, read-out: Inhibition rate on the cell growth) was 63.8%. It also gave an inhibition at 125 µg/mL ([1]; BGC-823, 125 μg/ml, read-out: Inhibition rate on the cell growth) of 79%, an inhibition at 250 µg/mL ([1]; BGC-823, 250 μg/ml, read-out: Inhibition rate on the cell growth) of 76.2% and an inhibition at 500 µg/mL ([1]; BGC-823, 500 μg/ml, read-out: Inhibition rate on the cell growth) of 85%. The inhibition at 1000 µg/mL ([1]; BGC-823, 1000 μg/ml, read-out: Inhibition rate on the cell growth) was 98.5%, the IC50 [1] was 85 µg/mL and the inhibition at 62.5 µg/mL ([2]; PANC-1, 62.5 μg/ml, read-out: Inhibition rate on the cell growth) was 0.8%. The inhibition at 125 µg/mL ([2]; PANC-1, 125 μg/ml, read-out: Inhibition rate on the cell growth) was 2.01%, the inhibition at 250 µg/mL ([2]; PANC-1, 250 μg/ml, read-out: Inhibition rate on the cell growth) was 25.9% and the inhibition at 500 µg/mL ([2]; PANC-1, 500 μg/ml, read-out: Inhibition rate on the cell growth) was 48.1%. For the same compound, the inhibition at 1000 µg/mL ([2]; PANC-1, 1000 μg/ml, read-out: Inhibition rate on the cell growth) was 75%, the IC50 [2] was 509 µg/mL and the inhibition at 31.25 µg/mL ([5]; A549, 31.25 μg/ml, read-out: Inhibition rate on the cell growth) was 5.16%. It also gave an inhibition at 62.5 µg/mL ([5]; A549, 62.5 μg/ml, read-out: Inhibition rate on the cell growth) of 25.6%, an inhibition at 125 µg/mL ([5]; A549, 125 μg/ml, read-out: Inhibition rate on the cell growth) of 46.4% and an inhibition at 250 µg/mL ([5]; A549, 250 μg/ml, read-out: Inhibition rate on the cell growth) of 50.5%. For the same compound, the inhibition at 500 µg/mL ([5]; A549, 500 μg/ml, read-out: Inhibition rate on the cell growth) was 67%, the inhibition at 1000 µg/mL ([5]; A549, 1000 μg/ml, read-out: Inhibition rate on the cell growth) was 98.2% and the IC50 ([5]; A549, MTT) was 156 µg/mL. For the same compound, the inhibition at 31.25 µg/mL ([6]; MCF7, MCF-7, 31.25 μg/ml, read-out: Inhibition rate on the cell growth) was 13.3%, the inhibition at 62.5 µg/mL ([6]; MCF7, MCF-7, 62.5 μg/ml, read-out: Inhibition rate on the cell growth) was 31.5% and the inhibition at 125 µg/mL ([6]; MCF7, MCF-7, 125 μg/ml, read-out: Inhibition rate on the cell growth) was 62.3%. For the same compound, the inhibition at 250 µg/mL ([6]; MCF7, MCF-7, 250 μg/ml, read-out: Inhibition rate on the cell growth) was 67.1%, the inhibition at 500 µg/mL ([6]; MCF7, MCF-7, 500 μg/ml, read-out: Inhibition rate on the cell growth) was 68.8% and the inhibition at 1000 µg/mL ([6]; MCF7, MCF-7, 1000 μg/ml, read-out: Inhibition rate on the cell growth) was 99.7%. It also gave an IC50 ([6]; MCF7, MCF-7, MTT) of 106 µg/mL, an inhibition at 31.25 µg/mL ([7]; SK-OV-3, SKOV3, 31.25 μg/ml, read-out: Inhibition rate on the cell growth) of 9.97% and an inhibition at 62.5 µg/mL ([7]; SK-OV-3, SKOV3, 62.5 μg/ml, read-out: Inhibition rate on the cell growth) of 34%. The inhibition at 125 µg/mL ([7]; SK-OV-3, SKOV3, 125 μg/ml, read-out: Inhibition rate on the cell growth) was 76.8%, the inhibition at 250 µg/mL ([7]; SK-OV-3, SKOV3, 250 μg/ml, read-out: Inhibition rate on the cell growth) was 79.4% and the inhibition at 500 µg/mL ([7]; SK-OV-3, SKOV3, 500 μg/ml, read-out: Inhibition rate on the cell growth) was 93.8%. For the same compound, the inhibition at 1000 µg/mL ([7]; SK-OV-3, SKOV3, 1000 μg/ml, read-out: Inhibition rate on the cell growth) was 99.3%, the IC50 ([7]; SK-OV-3, SKOV3, MTT) was 92.6 µg/mL and the inhibition at 31.25 µg/mL ([3]; COLO 205, COLO205, 31.25 μg/ml, read-out: Inhibition rate on the cell growth) was 8.95%. The inhibition at 62.5 µg/mL ([3]; COLO 205, COLO205, 62.5 μg/ml, read-out: Inhibition rate on the cell growth) was 10.7%, the inhibition at 125 µg/mL ([3]; COLO 205, COLO205, 125 μg/ml, read-out: Inhibition rate on the cell growth) was 12.6% and the inhibition at 250 µg/mL ([3]; COLO 205, COLO205, 250 μg/ml, read-out: Inhibition rate on the cell growth) was 43.9%. For the same compound, the inhibition at 500 µg/mL ([3]; COLO 205, COLO205, 500 μg/ml, read-out: Inhibition rate on the cell growth) was 82.3%, the inhibition at 1000 µg/mL ([3]; COLO 205, COLO205, 1000 μg/ml, read-out: Inhibition rate on the cell growth) was 93.8% and the IC50 [3] was 209 µg/mL. The inhibition at 31.25 µg/mL ([4]; SMMC-7721, 31.25 μg/ml, read-out: Inhibition rate on the cell growth) was 8.81%, the inhibition at 62.5 µg/mL ([4]; SMMC-7721, 62.5 μg/ml, read-out: Inhibition rate on the cell growth) was 13.4% and the inhibition at 125 µg/mL ([4]; SMMC-7721, 125 μg/ml, read-out: Inhibition rate on the cell growth) was 38.5%. For the same compound, the inhibition at 250 µg/mL ([4]; SMMC-7721, 250 μg/ml, read-out: Inhibition rate on the cell growth) was 62.3%, the inhibition at 500 µg/mL ([4]; SMMC-7721, 500 μg/ml, read-out: Inhibition rate on the cell growth) was 80% and the inhibition at 1000 µg/mL ([4]; SMMC-7721, 1000 μg/ml, read-out: Inhibition rate on the cell growth) was 98.8%. It also gave an IC50 [4] of 150 µg/mL.
